The term fraction unbound denotes free concentration divided by total concentration. What is called IC50 is the concentration that gives 50% inhibition. High values mean a need for much substance, low ones inhibition by little substance.

Data set [1] can be described thus: Protein binding test (equilibrium dialysis, unbound fraction in serum). It is filed as in vitro ADME. The settings on record: 37° C. As for the experimental part: The unbound fraction of the present compound in serum was measured using serum of various species.
The reactive conditions are as follows: Evaluation method, Equilibrium dialysis; Reaction time, 24 hours; Reaction temperature, 37° C.; Concentration of the present compound, 2 μg/mL
The test solution was added to each serum and the mixture was agitated to prepare the serum samples at the concentration mentioned above. Each serum sample was added into one side of the cell and phosphate buffered saline (PBS) was added into the other side to perform equilibrium dialysis at 37° C. for 24 hours. Then, the concentration of the compounds in the samples that were obtained from both sides was measured by LC/MS/MS.
The ratio of PBS concentration to serum concentration is expressed as unbound fraction (fu),
Background: Equilibrium dialysis compares concentrations on both sides of a semipermeable membrane.

Another data set addresses human P2X3 receptor (Homo sapiens (Human), UniProt P56373). Nature of the data set: Evaluation of human P2X3 receptor inhibitory activity (FLIPR Ca fluorescence, ATP-evoked). It is filed as cell-based. The settings on record: C6BU-1 cells stably expressing human P2X3 receptor. As for the experimental part: Stably expressing cell line (C6BU-1 cell transfected with human P2X3 receptor gene (GenBank accession number Y07683) was used. The cells were seeded in a 384-well PDL-coated microtiter plate at a concentration of 3000 cells/well and cultured in the medium (8.3% fetal bovine serum, 8.3% horse serum, and 1% antibiotic and antifungal in DMEM) for one day at 37° C. under 5% carbon dioxide atmosphere. The medium was replaced with 4 μM Fluo-3-AM solution (20 mM HEPES, 137 mM NaCl, 2.7 mM KCl, 0.9 mM MgCl2, 5.0 mM CaCl2, 5.6 mM D-glucose, 2.5 mM probenecid, 0.5% BSA, and 0.04% Pluronic P-127, pH 7.5) and incubated at 37° C. under 5% dioxide carbon atmosphere for one hour. The plate was washed with washing buffer (20 mM HEPES, 137 mM NaCl, 2.7 mM KCl, 0.9 mM MgCl2, 5.0 mM CaCl2, 5.6 mM D-glucose, 2.5 mM probenecid, pH 7.5), and each well was added with 20 μL of the washing buffer. The plate was placed in High-Throughput Screening System FLIPR 384 (Molecular Device Co.). Measurement of fluorescence intensity by […] was started, and 20 μL of DMSO solutions containing different concentrations of the test compound as prepared by dilution with dilution buffer (20 mM HEPES, 137 mM NaCl, 2.7 mM KCl, 0.9 mM MgCl2, 5.0 mM CaCl2, 5.6 mM D-glucose, 2.5 mM probenecid, 0.1% Pluronic F-127, pH 7.5) were dispensed to each well through the built-in automatic dispenser. Five minutes after, 150 nM ATP solution (25 μL) prepared by dilution with the dilution buffer was dispensed through the built-in automatic dispenser, and the measurement of fluorescence intensity was continued for 4 min. For each well, the specific maximum fluorescence intensity was calculated as the ratio of the maximum fluorescence intensity after addition of the ATP solution to the fluorescence intensity at the starting of the measurement. […] The specific maximum fluorescence intensify and IC50 were calculated using Spotfire (Science & Technology Systems. Inc.)

Chain of human P2X3 receptor (P56373 whole entry): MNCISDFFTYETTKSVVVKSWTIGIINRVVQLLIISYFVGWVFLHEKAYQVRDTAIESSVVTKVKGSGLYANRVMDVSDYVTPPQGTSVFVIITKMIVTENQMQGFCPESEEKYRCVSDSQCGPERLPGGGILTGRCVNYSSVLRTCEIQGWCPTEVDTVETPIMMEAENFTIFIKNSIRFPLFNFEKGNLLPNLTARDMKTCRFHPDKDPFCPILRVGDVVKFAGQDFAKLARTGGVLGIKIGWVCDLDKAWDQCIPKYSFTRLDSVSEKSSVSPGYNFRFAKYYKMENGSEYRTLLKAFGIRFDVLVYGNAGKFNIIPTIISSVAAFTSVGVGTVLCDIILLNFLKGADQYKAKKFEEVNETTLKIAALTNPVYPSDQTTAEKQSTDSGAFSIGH

In turn, `Cc1ccc(Cn2c(=O)n(C[C@H](C)C(=O)O)c(=O)[nH]/c2=N\c2ccc(Oc3ccc(F)cn3)cc2)cc1` [Compound I-040] registered a fraction unbound at 24 h, 2 μg/mL in data set [1] of 0.035. This compound yielded an IC50 against human P2X3 receptor of 6 nM.

Values taken from patent publication US9732060B2, “Aminotriazine derivative and pharmaceutical composition comprising the same” (Shionogi & Co., Ltd., priority 2013, dated 2017).
